Assay results: patent US20250382344A1, “Soluble GLP1/GIP/NPY2 Receptor Triple Agonists” (Boehringer Ingelheim International GmH, priority 2024, published 2025)

Key:
[1] = Solubility in 0.1 M phosphate buffer at pH 7; type: physicochemical; conditions: 0.1 M phosphate buffer at pH 7, 10 mg/mL final peptide concentration, shaking 2 hours at room temperature, peptides as TFA-salts, measured sample pH 6.5-7.0; for solubility: read-out: Solubility
[2] = Mouse PK after intravenous application; type: in vivo; conditions: plasma, male NMRI mice, intravenous 30-60 nmol/kg, non-compartmental analysis
Experimental: Pharmacokinetic parameters of the peptides were determined after intravenous application to NMRI mice (Naval Medical Research Institute mice). Male NMRI mice were obtained from Janvier Laboratories (France) weighing 30 g to 40 g. Mice were housed in standard cages with a 12:12 hours light:dark cycle and standard food and water access ad libitum. Each test peptide was dissolved in 50 mM phosphate buffer (pH 7.4)/3.5% mannitol. Intravenous application of 30-60 nmol/kg was performed via the tail vein. Serial blood samples from conscious mice were collected from the saphenous vein in EDTA-containing vials at different time points up to 56 hours post-dosing. Subsequently, plasma was prepared by centrifugation for 5 minutes at approximately 5000 rpm and stored at −20° C. until quantification of the peptide plasma levels by liquid chromatography mass spectrometry (LC-MS). Individual plasma concentration-time profiles were analysed by a non-compartmental approach and the resulting pharmacokinetic parameters were calculated.

hGIPR = target: T1, hGIPR (Homo sapiens, UniProt P48546); assay: hGIPR CreLuc assay in 0.5% and 100% plasma (CHO CRE-luciferase reporter cells); type: cell-based; conditions: 0.5% human plasma, read-out: hGIPR 0.5% hP
T1 construct: expressed in transfected cells; host or cells: CHO CRE-luciferase reporter cells
T1 sequence (P48546 22-466): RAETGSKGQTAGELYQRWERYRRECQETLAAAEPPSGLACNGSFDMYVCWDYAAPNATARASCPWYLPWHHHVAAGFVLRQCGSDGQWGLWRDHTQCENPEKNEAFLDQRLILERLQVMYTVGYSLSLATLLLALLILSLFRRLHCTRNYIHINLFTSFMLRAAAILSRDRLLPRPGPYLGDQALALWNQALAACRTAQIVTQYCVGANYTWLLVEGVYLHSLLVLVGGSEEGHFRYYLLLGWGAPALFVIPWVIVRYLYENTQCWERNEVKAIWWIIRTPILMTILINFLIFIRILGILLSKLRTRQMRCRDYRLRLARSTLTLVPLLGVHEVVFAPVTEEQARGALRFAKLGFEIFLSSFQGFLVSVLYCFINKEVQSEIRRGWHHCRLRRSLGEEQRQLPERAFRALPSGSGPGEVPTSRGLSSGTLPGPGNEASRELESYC

hGLP1R = target: T2, hGLP1R (Homo sapiens, UniProt P43220); assay: hGLP1R CreLuc assay in 0.5% and 100% plasma (HEK-293 CRE-luciferase reporter cells); type: cell-based; conditions: 0.5% human plasma, HEK-293 reporter cells, read-out: hGLP1R 0.5% hP
T2 construct: expressed in transfected cells; host or cells: HEK-293 CRE-luciferase reporter cells
T2 sequence (P43220 24-463): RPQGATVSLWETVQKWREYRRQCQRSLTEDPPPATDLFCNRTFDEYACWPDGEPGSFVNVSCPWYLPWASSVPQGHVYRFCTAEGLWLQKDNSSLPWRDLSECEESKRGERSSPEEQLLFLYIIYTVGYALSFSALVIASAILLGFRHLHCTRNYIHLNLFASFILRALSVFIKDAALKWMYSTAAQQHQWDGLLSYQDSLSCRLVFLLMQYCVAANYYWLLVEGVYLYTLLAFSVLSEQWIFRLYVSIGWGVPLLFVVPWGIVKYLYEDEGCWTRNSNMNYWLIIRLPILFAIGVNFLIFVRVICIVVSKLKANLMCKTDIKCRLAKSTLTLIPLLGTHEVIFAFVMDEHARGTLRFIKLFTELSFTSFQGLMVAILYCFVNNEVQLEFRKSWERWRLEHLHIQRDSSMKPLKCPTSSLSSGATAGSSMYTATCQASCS

hNPY2R = target: T3, hNPY2R (Homo sapiens, UniProt P49146); assay: hNPY2R CreLuc assay in 0.5% and 100% plasma (HEK-293 CRE-luciferase reporter cells); type: cell-based; conditions: 0.5% human plasma, HEK-293 reporter cells, read-out: hNPY2R 0.5% hP
T3 construct: expressed in transfected cells; host or cells: HEK-293 CRE-luciferase reporter cells
T3 sequence (P49146 1-381): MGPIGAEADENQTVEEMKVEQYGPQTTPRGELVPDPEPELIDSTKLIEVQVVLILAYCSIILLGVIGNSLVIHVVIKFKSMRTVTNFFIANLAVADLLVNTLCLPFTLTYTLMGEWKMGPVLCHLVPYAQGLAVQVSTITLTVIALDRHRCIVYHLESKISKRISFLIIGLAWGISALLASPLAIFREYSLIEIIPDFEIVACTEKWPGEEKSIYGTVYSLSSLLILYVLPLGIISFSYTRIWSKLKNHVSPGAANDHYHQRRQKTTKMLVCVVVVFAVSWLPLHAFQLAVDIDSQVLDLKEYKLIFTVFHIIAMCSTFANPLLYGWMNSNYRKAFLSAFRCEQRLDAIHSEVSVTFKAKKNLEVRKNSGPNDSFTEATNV

SMILES	solubility [1] [µg/mL]	MRT [2] [h]	EC50 (hGIPR) [nM]	EC50 (hGLP1R) [nM]	solubility at 2 h [1] [µg/mL]	EC50 (hNPY2R) [nM]
CC[C@H](C)[C@H](NC(=O)[C@H](CC(C)C)NC(=O)[C@H](Cc1c[nH]cn1)NC(=O)[C@H](CCCNC(=N)N)NC(=O)[C@@H](NC(=O)[C@H](Cc1ccccc1)NC(=O)[C@H](C)NC(=O)C(C)(C)NC(=O)[C@H](CCC(N)=O)NC(=O)[C@H](C)NC(=O)[C@H](CCC(N)=O)NC(=O)[C@H](CCCCN)NC(=O)[C@H](CCC(=O)O)NC(=O)[C@H](CC(C)C)NC(=O)C(C)(C)NC(=O)[C@@H](NC(=O)[C@H](CO)NC(=O)[C@H](Cc1ccc(O)cc1)NC(=O)[C@H](CC(=O)O)NC(=O)[C@H](CO)NC(=O)[C@@H](NC(=O)[C@H](Cc1ccccc1)NC(=O)[C@@H](NC(=O)CNC(=O)[C@H](CCC(=O)O)NC(=O)C(C)(C)NC(=O)[C@@H](N)Cc1ccc(O)cc1)[C@@H](C)O)[C@@H](C)O)[C@@H](C)CC)C(C)C)C(=O)N[C@@H](CC(N)=O)C(=O)N[C@@H](CCCCNC(=O)CCCCCNC(=O)CC[C@H](NC(=O)CC[C@H](NC(=O)CC[C@H](NC(=O)CC[C@H](NC(=O)CC[C@H](NC(=O)CC[C@H](NC(=O)CCCCCCCCCCCCCCCCC(=O)O)C(=O)O)C(=O)O)C(=O)O)C(=O)O)C(=O)O)C(=O)O)C(=O)NC(C)(C)C(=O)N[C@H](C(=O)N[C@@H](CCCNC(=N)N)C(=O)N[C@@H](CCC(N)=O)C(=O)N[C@@H](CCCNC(=N)N)C(=O)N[C@@H](Cc1ccc(O)cc1)C(N)=O)[C@@H](C)O [Compound 9, Y-Aib-E-G-T-F-T-S-D-Y-S-I-Aib-L-E-K-Q-A-Q-Aib-A-F-V-R-H-L-I-N-K(1,3)-Aib-T-R-Q-R-Y-NH2.C18DA-gGlu-gGlu-gGlu-gGlu-gGlu-gGlu-AHX(1,2)]	4700	7.5				
CC[C@H](C)[C@H](NC(=O)[C@H](CC(C)C)NC(=O)[C@H](Cc1c[nH]cn1)NC(=O)[C@H](CCCNC(=N)N)NC(=O)[C@@H](NC(=O)[C@H](Cc1ccccc1)NC(=O)[C@H](C)NC(=O)C(C)(C)NC(=O)[C@H](CCC(N)=O)NC(=O)[C@H](C)NC(=O)[C@H](CCC(N)=O)NC(=O)[C@H](CCCCN)NC(=O)[C@H](CCC(=O)O)NC(=O)[C@H](CC(C)C)NC(=O)C(C)(C)NC(=O)[C@@H](NC(=O)[C@H](CO)NC(=O)[C@H](Cc1ccc(O)cc1)NC(=O)[C@H](CC(=O)O)NC(=O)[C@H](CO)NC(=O)[C@@H](NC(=O)[C@H](Cc1ccccc1)NC(=O)[C@@H](NC(=O)CNC(=O)[C@H](CCC(=O)O)NC(=O)C(C)(C)NC(=O)[C@@H](N)Cc1ccc(O)cc1)[C@@H](C)O)[C@@H](C)O)[C@@H](C)CC)C(C)C)C(=O)N[C@@H](CC(N)=O)C(=O)N[C@@H](CCCCNC(=O)CCCCCNC(=O)CC[C@H](NC(=O)CC[C@H](NC(=O)CC[C@H](NC(=O)CC[C@H](NC(=O)CC[C@H](NC(=O)CCCCCCCCCCCCCCCCC(=O)O)C(=O)O)C(=O)O)C(=O)O)C(=O)O)C(=O)O)C(=O)N[C@@H](CC(C)C)C(=O)N[C@H](C(=O)N[C@@H](CCCNC(=N)N)C(=O)N[C@@H](CCC(N)=O)C(=O)N[C@@H](CCCNC(=N)N)C(=O)N[C@@H](Cc1ccc(O)cc1)C(N)=O)[C@@H](C)O [Compound 69, Y-Aib-E-G-T-F-T-S-D-Y-S-I-Aib-L-E-K-Q-A-Q-Aib-A-F-V-R-H-L-I-N-K(1,3)-L-T-R-Q-R-Y-NH2.C18DA-gGlu-gGlu-gGlu-gGlu-gGlu-AHX(1,2)]	4800	4.6				
CC[C@H](C)[C@H](NC(=O)[C@H](CC(C)C)NC(=O)[C@H](Cc1ccc(O)cc1)NC(=O)[C@H](CCCNC(=N)N)NC(=O)[C@@H](NC(=O)[C@H](Cc1ccccc1)NC(=O)[C@H](C)NC(=O)C(C)(C)NC(=O)[C@H](CCC(N)=O)NC(=O)[C@H](C)NC(=O)[C@H](CCC(N)=O)NC(=O)[C@H](CCCCN)NC(=O)[C@H](CC(=O)O)NC(=O)[C@H](CC(C)C)NC(=O)C(C)(C)NC(=O)[C@@H](NC(=O)[C@H](CO)NC(=O)[C@H](Cc1ccc(O)cc1)NC(=O)[C@H](CC(=O)O)NC(=O)[C@H](CO)NC(=O)[C@@H](NC(=O)[C@H](Cc1ccccc1)NC(=O)[C@@H](NC(=O)CNC(=O)[C@H](CCC(=O)O)NC(=O)C(C)(C)NC(=O)[C@@H](N)Cc1ccc(O)cc1)[C@@H](C)O)[C@@H](C)O)[C@@H](C)CC)C(C)C)C(=O)N[C@@H](CC(N)=O)C(=O)N[C@@H](CCCCNC(=O)[C@@H](N)CCCCNC(=O)CC[C@H](NC(=O)CC[C@H](NC(=O)CC[C@H](NC(=O)CC[C@H](NC(=O)CC[C@H](NC(=O)CC[C@H](NC(=O)CCCCCCCCCCCCCCCCC(=O)O)C(=O)O)C(=O)O)C(=O)O)C(=O)O)C(=O)O)C(=O)O)C(=O)NC(C)(C)C(=O)N[C@H](C(=O)N[C@@H](CCCNC(=N)N)C(=O)N[C@@H](CCC(N)=O)C(=O)N[C@@H](CCCNC(=N)N)C(=O)N[C@@H](Cc1ccc(O)cc1)C(N)=O)[C@@H](C)O [Compound 153, Y-Aib-E-G-T-F-T-S-D-Y-S-I-Aib-L-D-K-Q-A-Q-Aib-A-F-V-R-Y-L-I-N-K(1,3)-Aib-T-R-Q-R-Y-NH2.C18DA-gGlu-gGlu-gGlu-gGlu-gGlu-gGlu-eLys(1,2)]			0.1	0.1	8200	40
CC[C@H](C)[C@H](NC(=O)[C@H](CC(C)C)NC(=O)[C@H](Cc1c[nH]cn1)NC(=O)[C@H](CCCNC(=N)N)NC(=O)[C@@H](NC(=O)[C@H](Cc1ccccc1)NC(=O)[C@H](C)NC(=O)C(C)(C)NC(=O)[C@H](CCC(N)=O)NC(=O)[C@H](C)NC(=O)[C@H](CCC(N)=O)NC(=O)[C@H](CCCCN)NC(=O)[C@H](CCC(=O)O)NC(=O)[C@H](CC(C)C)NC(=O)C(C)(C)NC(=O)[C@@H](NC(=O)[C@H](CO)NC(=O)[C@H](Cc1ccc(O)cc1)NC(=O)[C@H](CC(=O)O)NC(=O)[C@H](CO)NC(=O)[C@@H](NC(=O)[C@H](Cc1ccccc1)NC(=O)[C@@H](NC(=O)CNC(=O)[C@H](CCC(=O)O)NC(=O)C(C)(C)NC(=O)[C@@H](N)Cc1ccc(O)cc1)[C@@H](C)O)[C@@H](C)O)[C@@H](C)CC)C(C)C)C(=O)N[C@@H](CC(N)=O)C(=O)N[C@@H](CCCCNC(=O)CCCCCNC(=O)CC[C@H](NC(=O)CC[C@H](NC(=O)CC[C@H](NC(=O)CC[C@H](NC(=O)CC[C@H](NC(=O)CCCCCCCCCCCCCCCCCCC(=O)O)C(=O)O)C(=O)O)C(=O)O)C(=O)O)C(=O)O)C(=O)NC(C)(C)C(=O)N[C@H](C(=O)N[C@@H](CCCNC(=N)N)C(=O)N[C@@H](CCC(N)=O)C(=O)N[C@@H](CCCNC(=N)N)C(=O)N[C@@H](Cc1ccc(O)cc1)C(N)=O)[C@@H](C)O [Compound 167, Y-Aib-E-G-T-F-T-S-D-Y-S-I-Aib-L-E-K-Q-A-Q-Aib-A-F-V-R-H-L-I-N-K(1,3)-Aib-T-R-Q-R-Y-NH2.C20DA-gGlu-gGlu-gGlu-gGlu-gGlu-AHX(1,2)]			0.2	1	10000	13.3
